Our source for the IC50 and EC50 values is patent publication US11401278B2, “Macrocyclic indole derivatives” (The Broad Institute, Inc., priority 2017, dated 2022).

Values joined by “and” are separate entries in the source; they are usually repeats but may differ in a detail not shown here. Equal entries are not always repeated. Structures can show the parent of a compound that is named as a salt. Where two headings read alike, the source gives them in different places. Some results are limits rather than exact numbers.

One data set relates to MV-4-11. The data set can be described thus: Antiproliferation assay (Assay 7), MV-4-11. In kind it is cell-based. Particulars: CellTiter-Glo, several values per example. The essentials:
(§1)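 Plate cells in treatment and day 0 reference plates; read day 0 plate with CellTiter-Glo after 10 min; incubate treated plates 72 h at 37° C; read them identically.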
(Cellular ATP, detected with luciferase, serves as a proxy for viable cell number.)

In a further data set the test system is AMO-1. The data set can be described thus: Antiproliferation assay (Assay 7), AMO-1. In kind it is cell-based. As to conditions: Homo sapiens, AMO1, 72 h, CellTiter-Glo, several values per example, read-out: Antiproli AMO-1 [M] IC50. In a few lines:
as §1

Data set [1] deals with SUDHL10. The data set can be described thus: Induction of cytotoxicity (Assay 6), SUDHL10. As to conditions: read-out: Cytotox SUDHL10 [M] (median) IC50, CellTiter-Glo, 5 hours, SUDHL10.
In data set [2] the test system is SUDHL10. The data set can be described thus: Induction of caspase-3/7 activity (Assay 4), SUDHL10. In kind it is cell-based. Particulars: caspase-3/7 induction, median. The essentials: (§2)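 DLBCL cells were exposed to compounds for 3 hours at 37 °C, then caspase-3/7 activation was read with Caspase-Glo 3/7 reagent. After subtracting medium-only background, EC50s were derived with fixed C0=1 and the reference compound's maximal induction as plateau.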

Data set [3] concerns SUDHL5. The data set can be described thus: Antiproliferation assay (Assay 7), SUDHL5. In kind it is cell-based. Particulars: CellTiter-Glo, median, read-out: Antiproli SUDHL5 [M] (median) IC50. The essentials:
as §1

The target of a further data set is BCL-2 (Homo sapiens (Human), UniProt P10415). The data set can be described thus: Protein-protein interaction assay BCL-2/Bad BH3 peptide (BCL-2 assay, TR-FRET). In kind it is binding. As to conditions: His-BCL-2 / Bad BH3 peptide, median. On the procedure: Assay 3 Protein-Protein Interaction Assay: BCL-2/Bad BH3 Peptide (BCL-2 Assay)
Sequence of BCL-2 (P10415 other isoform, or with tags, fused parts or gaps): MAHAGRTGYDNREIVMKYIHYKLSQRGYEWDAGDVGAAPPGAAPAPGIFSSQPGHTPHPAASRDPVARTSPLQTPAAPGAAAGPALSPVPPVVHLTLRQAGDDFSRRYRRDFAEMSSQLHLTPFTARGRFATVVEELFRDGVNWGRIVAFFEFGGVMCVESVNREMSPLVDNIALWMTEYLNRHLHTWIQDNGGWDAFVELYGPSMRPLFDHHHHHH
The dose-dependent inhibition by the compounds described in this invention of the interaction between BCL-2 and the BH3 domain of Bad (both human) was determined using a steady state binding competition assay with time-resolved fluorescence energy transfer (TR-FRET) readout. For that purpose BCL-2 (amino acids 1-211, C-terminal fused to a hexahistidine (6×His) tag (SEQ ID 5) and a synthetic Bad BH3-derived peptide of sequence Biotin-PEG2-PEG2-NLWAAQRYGRELRR-Nle-SDEFVDSFKK-amide (SEQ ID 4) served as protein receptor and tracer ligand respectively. The recombinant BCL-2 protein (expressed in E. coli) was purchased from BPS Bioscience (San Diego, Calif., USA). The Bad BH3-derived peptide can be obtained from e.g. Biosyntan (Berlin, Germany).
In the assay 11 different concentrations of each compound (0.1 nM, 0.33 nM, 1.1 nM, 3.8 nM, 13 nM, 44 nM, 0.15 μM, 0.51 μM, 1.7 μM, 5.9 μM and 20 μM) were typically measured as duplicates in the same microtiter plate. For that, 100-fold concentrated DMSO solutions were prepared by serial dilutions (1:3.4) of a 2 mM stock solution in a clear, 384-well microtiter plate (Greiner Bio-One, Frickenhausen, Germany). From there, 50 nl were transferred in a dark test plate (Greiner Bio-One, Frickenhausen, Germany). The assay was initiated by addition of 2 μl of a 2.5-fold concentrated His-BCL-2 solution (usually for a 1 nM end concentration in 5 μl reaction volume) in aqueous assay buffer [50 mM Tris/HCl pH 7, 100 mM sodium chloride (NaCl), 50 mM potassium fluoride (KF), 0.005% Tween-20, 2 mM DTT, 0.1% bovine gamma globulin (BGG)] to the compounds in the assay plate. This was followed by a 10-minute incubation step at 22° C. for pre-equilibration of the putative complex between His-BCL-2 and the compounds. After that, 3 μl of a 1.67-fold concentrated solution (in assay buffer) consisting of Bad BH3-derived peptide (1 nM end concentration) and TR-FRET detection reagents [1.67 nM anti-His-Eu cryptate and 1.67 nM streptavidin-XL665 (both from Cisbio Bioassays, Codolet, France)], were added.
The mixture was incubated in the dark for one hour at 22° C. and then overnight at 4° C. The formation of BCL-2/Bad complexes was determined by measuring the resonance energy transfer of the anti-His-Eu-cryptate antibody to the streptavidin-XL665 present in the reaction. For that purpose, the fluorescence emission at 620 nm and 665 nm after excitation at 330-350 nm was measured in a TR-FRET measuring instrument, for instance a Rubystar or a Pherastar (both from BMG Lab Technologies, Offenburg, Germany) or a Viewlux (Perkin-Elmer). The ratio of the emission at 665 nm and at 622 nm was used as indicator of the amount of BCL-2/Bad complexes present.
The resulting data (ratio) were normalized, taking 0% inhibition as the mean value of control measurements (usually 32 data points) where all reagents were included. In this case 50 nl DMSO were used instead of compounds. A 100% inhibition corresponded to the mean value of control measurements (usually 32 data points) where all reagents except BCL-2 were included. IC50 values were determined by regression analysis based on a 4 parameter equation (minimum, maximum, IC50, Hill; Y=Max+(Min−Max)/(1+(X/IC50)^HiII) using the Screener Software (Genedata).
A general note: In TR-FRET formats the signal depends on donor and acceptor labels being close together.

For data set [4], the system named is SUDHL5. The data set can be described thus: Induction of caspase-3/7 activity (Assay 4), SUDHL5. In kind it is cell-based. Particulars: caspase-3/7 induction, median. The essentials:
as §2

[5] abbreviates: Homo sapiens, MV4-11, 72 h, read-out: Antiproli MV-4-11 [M] IC50.

For orientation: IC50 means the point on the concentration scale where inhibition reaches its midpoint. The term EC50 denotes the concentration that produces a half-maximal response. Low values mean higher potency in that assay, high ones lower potency in that assay.

For the molecule `CCc1c2c(nn1C)CN(CCCN1CCCC1)S(=O)(=O)CCCn1c(C(=O)O)c(CCCOc3cccc4ccccc34)c3cccc-2c31` (racemic) [Example 16, (rac)-12-Ethyl-11-methyl-1-(3-(naphthalen-1-yloxy)propyl)-8-(3-(pyrrolidin-1-yl)propyl)-5,6,9,11-tetrahydro-4H,8H-pyrazolo[3′,4′:4,5][1]thia[2,8]diazacycloundecino[6,7,8-hi]indole-2-carboxylic acid 7,7-dioxide], the IC50 is greater than 3.3e-05 M in the data set on MV-4-11 (setting [5]); greater than 3.3e-05 M in the data set with AMO-1; greater than 3.3e-05 M in the data set with SUDHL10 [1] (Homo sapiens, SU-DHL10, 5 h); 2.2e-05 M in the data set on SUDHL5 [3] (Homo sapiens, SU-DHL-5, 72 h); greater than 20 µM against BCL-2. The EC50 in the data set on SUDHL10 [2] (Homo sapiens, SU-DHL10, 3 h) was greater than 33 µM; with SUDHL5 [4] (Homo sapiens, SU-DHL-5, 3 h) it was 32 µM.

In the case of `Cc1c2c(nn1C)CN(C)S(=O)(=O)CCCn1c(C(=O)O)c(CCCOc3cccc4c3CCCC4)c3ccc(F)c-2c31` (racemic) [Example 29, (rac)-13-Fluoro-8,11,12-trimethyl-1-(3-((5,6,7,8-tetrahydronaphthalen-1-yl)oxy)propyl)-5,6,9,11-tetrahydro-4H,8H-pyrazolo[3′,4′:4,5][1]thia[2,8]diazacycloundecino[6,7,8-hi]indole-2-carboxylic acid 7,7-dioxide], the IC50 in the data set with MV-4-11 (setting [5]) was 5.86e-06 M; in the data set with AMO-1, 7.1e-06 M; in the data set with SUDHL10 [1] (Homo sapiens, SU-DHL10, 5 h) it was 3.8e-06 M; in the data set on SUDHL5 [3] (Homo sapiens, SU-DHL-5, 72 h) it was 5e-07 M; against BCL-2, greater than 20 µM. The EC50 turned out to be 4.5 µM in the data set with SUDHL10 [2] (Homo sapiens, SU-DHL10, 3 h) and 1.5 µM with SUDHL5 [4] (Homo sapiens, SU-DHL-5, 3 h).

For the molecule `CCc1c2c(nn1C)CNS(=O)(=O)CCCn1c(C(=O)O)c(CCCOc3cccc4ccccc34)c3cccc-2c31` (racemic) [Example 17, (rac)-12-Ethyl-11-methyl-1-(3-(naphthalen-1-yloxy)propyl)-4,5,6,8,9,11-hexahydropyrazolo[3′,4′:4,5][1,2,8]thiadiazacycloundecino[6,7,8-hi]indole-2-carboxylic acid 7,7-dioxide], the IC50 is 1.65e-05 M in the data set on MV-4-11 (setting [5]); greater than 3.3e-05 M with AMO-1; 1.6e-05 M in the data set on SUDHL10 [1] (Homo sapiens, SU-DHL10, 5 h); 4.7e-06 M in the data set on SUDHL5 [3] (Homo sapiens, SU-DHL-5, 72 h); greater than 20 µM on BCL-2. For the same molecule, the EC50 amounted to 21 µM with SUDHL10 [2] (Homo sapiens, SU-DHL10, 3 h) and 13 µM with SUDHL5 [4] (Homo sapiens, SU-DHL-5, 3 h).

With `CCc1c2c(nn1C)CN(C)S(=O)(=O)CCCn1c(C(=O)O)c(CCCOc3cccc4c3CCC4)c3ccc(Cl)c-2c31` [Example 21, (rac)-13-Chloro-1-(3-((2,3-dihydro-1H-inden-4-yl)oxy)propyl)-12-ethyl-8,11-dimethyl-5,6,9,11-tetrahydro-4H,8H-pyrazolo[3′,4′:4,5][1]thia[2,8]diazacycloundecino[6,7,8-hi]indole-2-carboxylic acid 7,7-dioxide], the IC50 with MV-4-11 (setting [5]) was 2.1e-06 M; with AMO-1, 2.6e-06 M; in the data set on SUDHL10 [1] (Homo sapiens, SU-DHL10, 5 h), 1.8e-06 M; in the data set on SUDHL5 [3] (Homo sapiens, SU-DHL-5, 72 h), 5.3e-07 M; at BCL-2 it was greater than 20 µM. The EC50 with SUDHL10 [2] (Homo sapiens, SU-DHL10, 3 h) was found to be 1.4 µM; in the data set on SUDHL5 [4] (Homo sapiens, SU-DHL-5, 3 h), 0.65 µM.

Take `Cc1c2c(nn1C)CN(CCN1CCOCC1)S(=O)(=O)CCCn1c(C(=O)O)c(CCCOc3cccc4ccccc34)c3cccc-2c31` (racemic) [Example 1, (rac)-2,3-Dimethyl-14-[2-(morpholin-4-yl)ethyl]-7-{3-[(naphthalen-1-yl)oxy]propyl}-13,13-dioxo-10,11,12,13,14,15-hexahydro-2H-13λ^6-pyrazolo[3′,4′:4,5][1,2,8]thiadiazacycloundecino-[6,7,8-hi]indole-8-carboxylic acid]: the IC50 is 1.8e-05 M and 2.38e-05 M in the data set with MV-4-11 (72 hours, listed as 01, read-out: Antiproli MV-4-11 [M] IC50); 1.73e-05 M in the data set with MV-4-11 (setting [5]); 1.3e-05 M with SUDHL10 [1] (Homo sapiens, SU-DHL10, 5 h); 7.2e-06 M with SUDHL5 [3] (Homo sapiens, SU-DHL-5, 72 h); greater than 20 µM on BCL-2. For the same molecule, the EC50 is 14 µM in the data set with SUDHL10 [2] (Homo sapiens, SU-DHL10, 3 h) and 4.8 µM in the data set on SUDHL5 [4] (Homo sapiens, SU-DHL-5, 3 h).

Turning to `CCc1c2c(nn1C)CN(C)S(=O)(=O)CCCn1c(C(=O)O)c(CCCOc3cccc4c3CCCC4)c3ccc(F)c-2c31` (racemic) [Example 34, (rac)-12-Ethyl-13-fluoro-8,11-dimethyl-1-(3-((5,6,7,8-tetrahydronaphthalen-1-yl)oxy)propyl)-5,6,9,11-tetrahydro-4H,8H-pyrazolo[3′,4′:4,5][1]thia[2,8]diazacycloundecino[6,7,8-hi]indole-2-carboxylic acid 7,7-dioxide], the IC50 is 4.83e-06 M in the data set with MV-4-11 (setting [5]); 2.4e-06 M in the data set on SUDHL10 [1] (Homo sapiens, SU-DHL10, 5 h); 8.2e-07 M in the data set on SUDHL5 [3] (Homo sapiens, SU-DHL-5, 72 h); greater than 20 µM on BCL-2. Also, the EC50 in the data set on SUDHL10 [2] (Homo sapiens, SU-DHL10, 3 h) amounted to 3.6 µM; with SUDHL5 [4] (Homo sapiens, SU-DHL-5, 3 h) it was 1.3 µM.

`Cc1c2c(nn1C)CN(CCN1CCOCC1)S(=O)(=O)CCCn1c(C(=O)O)c(CCCOc3cccc4ccccc34)c3cccc-2c31` (single isomer, unassigned; enantiomer 2) [Example 3, 2,3-Dimethyl-14-[2-(morpholin-4-yl)ethyl]-7-{3-[(naphthalen-1-yl)oxy]propyl}-13,13-dioxo-10,11,12,13,14,15-hexahydro-2H-13λ^6-pyrazolo[3′,4′:4,5][1,2,8]thiadiazacycloundecino-[6,7,8-hi]indole-8-carboxylic acid-N-ethylethanamine salt (Enantiomer 2)]: the IC50 with MV-4-11 (72 hours, listed as 03, read-out: Antiproli MV-4-11 [M] IC50) is 1.54e-05 M; in the data set on SUDHL10 [1], greater than 3.3e-05 M; in the data set with SUDHL5 [3] (72 hours) it was 1.5e-05 M; at BCL-2 it was greater than 20 µM. For the same molecule, the EC50 with SUDHL10 [2] (3 hours) and in the data set on SUDHL5 [4] (3 hours) was greater than 33 µM throughout.

`CCc1c2c(nn1C)CN(C)S(=O)(=O)CCCn1c(C(=O)O)c(CCCOc3cc(C)c(Cl)c(C)c3)c3ccc(F)c-2c31` (racemic) [Example 33, (rac)-1-(3-(4-Chloro-3,5-dimethylphenoxy)propyl)-12-ethyl-13-fluoro-8,11-dimethyl-5,6,9,11-tetrahydro-4H,8H-pyrazolo[3′,4′:4,5][1]thia[2,8]diazacycloundecino[6,7,8-hi]indole-2-carboxylic acid 7,7-dioxide]: the IC50 was 4.62e-06 M in the data set with MV-4-11 (setting [5]); 4.8e-06 M in the data set with AMO-1; 6.4e-06 M in the data set on SUDHL10 [1] (Homo sapiens, SU-DHL10, 5 h); greater than 20 µM against BCL-2. Moreover, the EC50 is 5.1 µM in the data set on SUDHL10 [2] (Homo sapiens, SU-DHL10, 3 h) and 1.6 µM in the data set on SUDHL5 [4] (Homo sapiens, SU-DHL-5, 3 h).
